Results taken from ChEMBL document CHEMBL4732190, “Identification of Potent and Long-Acting Single-Chain Peptide Mimetics of Human Relaxin-2 for Cardiovascular Diseases” (J Med Chem, 2021).
≈ marks a conversion by molar mass, not a printed value. *1 amine or outer side, *2 acyl side, *3 side chain or, on linkers, in order; H or OH if unused. Where a SMILES comes first, the peptide text is derived from it. [ ]: non-standard residue; d: D form. The star is where a group is joined. PEG11 = NCCOCCOCCOCCOCCOCCOCCOCCOCCOCCOCCOCCC(=O)O; X9 = NC(=O)CC[C@H](N*)C(=O)CCCCCCCCCCCCCCCCCC(=O)O; X8 = NC(=O)CC[C@H](N*)C(=O)CCCCCCCCCCCCCCCC(=O)O; X7 = CCCCCCCCCCCCCCCC(=O)[C@H](CCC(N)=O)N*; β2hAla(2S) = C[C@@H](CN[*:1])C(=O)[*:2]; hLys = NCCCCC[C@H](N)C(=O)O; Nle = CCCC[C@H](N)C(=O)O

What was measured:
[1] = Stability in human plasma assessed as parent compound remaining level at 5 uM remaining after 4 hrs; type: ADME, cell-free; conditions: read-out: Stabilty
Relaxin receptor 1 [2] = molecular target: T1, Relaxin receptor 1 (Homo sapiens, UniProt Q9HBX9); assay: Agonist activity at RXFP1 endogenously expressed in human OVCAR-5 cells assessed as increase in IBMX-induced cAMP accumulation pretreated with IBMX for 40 mins followed by compound addition and measured after 30 mins by HTRF assay; type: functional, cell-based
T1 sequence (Q9HBX9 whole entry): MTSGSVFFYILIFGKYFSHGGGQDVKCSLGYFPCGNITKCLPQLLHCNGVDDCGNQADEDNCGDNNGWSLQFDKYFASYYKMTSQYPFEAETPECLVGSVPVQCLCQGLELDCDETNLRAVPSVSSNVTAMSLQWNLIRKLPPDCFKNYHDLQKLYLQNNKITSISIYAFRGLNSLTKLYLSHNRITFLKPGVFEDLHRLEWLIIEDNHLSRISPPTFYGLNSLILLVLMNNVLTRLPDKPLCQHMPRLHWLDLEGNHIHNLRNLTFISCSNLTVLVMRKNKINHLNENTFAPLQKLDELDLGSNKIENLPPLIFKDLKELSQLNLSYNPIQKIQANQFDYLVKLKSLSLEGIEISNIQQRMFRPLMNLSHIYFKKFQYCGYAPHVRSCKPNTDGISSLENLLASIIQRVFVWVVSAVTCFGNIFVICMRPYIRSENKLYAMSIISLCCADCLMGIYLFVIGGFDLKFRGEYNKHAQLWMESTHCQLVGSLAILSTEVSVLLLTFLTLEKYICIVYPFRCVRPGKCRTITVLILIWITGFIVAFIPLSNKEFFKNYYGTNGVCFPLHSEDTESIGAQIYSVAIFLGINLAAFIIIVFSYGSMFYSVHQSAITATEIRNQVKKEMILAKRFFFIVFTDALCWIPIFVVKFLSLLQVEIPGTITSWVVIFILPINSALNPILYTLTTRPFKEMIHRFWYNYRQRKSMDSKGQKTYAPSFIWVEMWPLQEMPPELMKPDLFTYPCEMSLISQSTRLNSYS

[3] = molecular target: T2, Relaxin receptor 1 (Homo sapiens) (UniProt Q9HBX9); assay: Agonist activity at RXFP1 endogenously expressed in human OVCAR-5 cells assessed as increase in IBMX-induced cAMP accumulation pretreated with IBMX for 40 mins followed by compound addition and measured after 30 mins by HTRF assay relative to relaxin; type: functional, cell-based; conditions: filed as agonist
T2 sequence (whole entry): T1 sequence (Q9HBX9 whole entry)

[4] = Aqueous solubility of compound in acetate buffer at pH 4.5 measured after 24 hrs by UPLC analysis; type: physicochemical
[5] = Aqueous solubility of compound in phosphate buffer at pH 7.4 measured after 24 hrs by UPLC analysis; type: physicochemical
[6] = Stability in rat plasma assessed as parent compound remaining level at 5 uM remaining after 4 hrs; type: ADME, cell-free; conditions: read-out: Stabilty
Relaxin receptor 1 [7] = molecular target: T1, Relaxin receptor 1; assay: Agonist activity at RXFP1 endogenously expressed in human OVCAR-5 cells assessed as increase in IBMX-induced cAMP accumulation pretreated with IBMX for 40 mins followed by compound addition and measured after 30 mins in presence of 2 % HSA by HTRF assay; type: functional, cell-based
[8] = Half life in Sprague-Dawley rat at 1 mg/kg, iv measured upto 72 hrs by LC-HRMS analysis; type: ADME, organism-based; conditions: in vivo

Molecule | remaining at 4 h, 5 µM [1] | EC50 (Relaxin receptor 1 [2]) | Emax [3] | solubility at 24 h [4] | solubility at 24 h [5] | remaining at 4 h, 5 µM [6] | EC50 (Relaxin receptor 1 [7]) | half-life [8]
CC[C@H](C)[C@H](NC[C@@H](C)CNC(=O)[C@@H](NC(=O)[C@H](CCC(N)=O)NC(=O)[C@H](C)NC(=O)[C@H](CCCNC(=N)N)NC(=O)[C@@H](NC(=O)[C@H](CCCCN)NC(=O)[C@H](CCC(=O)O)NC(=O)[C@H](CCCNC(=N)N)NC(=O)CNC(=O)[C@H](CCC(=O)O)NC(=O)[C@H](CC(C)C)NC(=O)[C@H](CCCCN)NC(=O)[C@@H](NC(=O)[C@@H](NC(C)=O)C(C)C)[C@@H](C)CC)C(C)C)[C@@H](C)CC)C(=O)N[C@@H](CCC(=O)O)C(=O)NCC(=O)N[C@@H](CCSC)C(=O)N[C@@H](CO)C(=O)N[C@@H](CCCCN)C(=O)N[C@@H](Cc1c[nH]c2ccccc12)C(=O)N[C@@H](CO)C(=O)N[C@@H](CCCCN)C(=O)N[C@@H](CCCNC(=N)N)C(=O)N[C@@H](CCCCN)C(=O)N[C@@H](CCCCN)C(N)=O | 79% | 54 nM | 95% | 4800 µg/mL (≈ 1490 µM) | 3800 µg/mL (≈ 1180 µM) | 29% |  | 
CCCC[C@H](NC(=O)[C@H](CCSC)NC(=O)CNC(=O)[C@H](CCC(=O)O)NC(=O)[C@@H](C)CNC(=O)[C@@H](C)CNC(=O)[C@@H](NC(=O)[C@H](CCCCCNC(C)=O)NC(=O)[C@H](CCCCN)NC(=O)[C@H](C)NC(=O)[C@H](CCCNC(=N)N)NC(=O)[C@@H](NC(=O)[C@H](CCCCN)NC(=O)[C@H](CCC(=O)O)NC(=O)[C@H](CCCNC(=N)N)NC(=O)[C@H](CCC(=O)O)NC(=O)CNC(=O)[C@H](CCC(=O)O)NC(=O)[C@H](CC(C)C)NC(C)=O)C(C)C)[C@@H](C)CC)C(=O)N[C@@H](CCCCN)C(=O)N[C@@H](CCCCCNC(C)=O)C(=O)N[C@@H](CO)C(=O)N[C@H](C(=O)N[C@@H](Cc1c[nH]c2ccccc12)C(=O)N[C@@H](CO)C(=O)NC[C@H](C)C(=O)N[C@@H](CCCNC(=N)N)C(=O)N[C@@H](CCCCN)C(=O)N[C@@H](CCCCN)C(=O)N[C@@H](CCCCCNC(C)=O)C(=O)N[C@@H](CCCCN)C(=O)N[C@@H](CCC(=O)O)C(=O)N[C@@H](CCC(=O)O)C(=O)N[C@@H](CCC(N)=O)C(=O)CCCCCCCCCCCCCCCC(=O)O)[C@@H](C)O (Ac-LEGEREKVRAK[hLys](Ac)I[β2hAla(2S)][β2hAla(2S)]EGM[Nle]K[hLys](Ac)STWS[β2hAla(2S)]RKK[hLys](Ac)KEE-X8) |  | 809 nM | 70% |  |  |  | > 2000 nM | 
CCCC[C@H](NC(=O)[C@H](CCSC)NC(=O)CNC(=O)[C@H](CCC(=O)O)NC(=O)[C@@H](C)CNC(=O)[C@@H](C)CNC(=O)[C@@H](NC(=O)[C@H](CCCCCNC(C)=O)NC(=O)[C@H](CCCCN)NC(=O)[C@H](C)NC(=O)[C@H](CCCNC(=N)N)NC(=O)[C@@H](NC(=O)[C@H](CCCCN)NC(=O)[C@H](CCC(=O)O)NC(=O)[C@H](CCCNC(=N)N)NC(=O)[C@H](CCC(=O)O)NC(=O)CNC(=O)[C@H](CCC(=O)O)NC(=O)[C@H](CC(C)C)NC(C)=O)C(C)C)[C@@H](C)CC)C(=O)N[C@@H](CCCCN)C(=O)N[C@@H](CCCCCNC(C)=O)C(=O)N[C@@H](CO)C(=O)N[C@H](C(=O)N[C@@H](Cc1c[nH]c2ccccc12)C(=O)N[C@@H](CO)C(=O)NC[C@H](C)C(=O)N[C@@H](CCCNC(=N)N)C(=O)N[C@@H](CCCCN)C(=O)N[C@@H](CCCCN)C(=O)N[C@@H](CCCCCNC(C)=O)C(=O)N[C@@H](CCCCN)C(=O)N[C@@H](CCC(=O)O)C(=O)N[C@@H](CCC(=O)O)C(=O)N[C@@H](CCC(N)=O)C(=O)CCCCCCCCCCCCCCCCCC(=O)O)[C@@H](C)O (Ac-LEGEREKVRAK[hLys](Ac)I[β2hAla(2S)][β2hAla(2S)]EGM[Nle]K[hLys](Ac)STWS[β2hAla(2S)]RKK[hLys](Ac)KEE-X9) |  | 368 nM | 75% |  |  |  | > 2000 nM | 
CCCCCCCCCCCCCCCC(=O)[C@H](CCC(N)=O)NC(=O)[C@H](CCC(=O)O)NC(=O)[C@H](CCC(=O)O)NC(=O)[C@H](CCCCN)NC(=O)CCOCCOCCOCCOCCOCCOCCOCCOCCOCCOCCOCCNC(=O)[C@H](CCCCN)NC(=O)[C@H](CCCNC(=N)N)NC(=O)[C@@H](C)CNC(=O)[C@H](CO)NC(=O)[C@H](Cc1c[nH]c2ccccc12)NC(=O)[C@@H](NC(=O)[C@H](CO)NC(=O)[C@H](CCCC)NC(=O)[C@H](CCSC)NC(=O)CNC(=O)[C@H](CCC(=O)O)NC(=O)[C@@H](C)CNC(=O)[C@@H](C)CNC(=O)[C@@H](NC(=O)[C@H](CCC(N)=O)NC(=O)[C@H](C)NC(=O)[C@H](CCCNC(=N)N)NC(=O)[C@@H](NC(=O)[C@H](CCCCN)NC(=O)[C@H](CCC(=O)O)NC(=O)[C@H](CCCNC(=N)N)NC(=O)[C@H](CCC(=O)O)NC(=O)CNC(=O)[C@H](CCC(=O)O)NC(=O)[C@H](CC(C)C)NC(C)=O)C(C)C)[C@@H](C)CC)[C@@H](C)O (Ac-LEGEREKVRAQI[β2hAla(2S)][β2hAla(2S)]EGM[Nle]STWS[β2hAla(2S)]RK[PEG11]KEE-X7) |  | 3.2 nM | 74% |  |  |  |  | 6.4 h
CC[C@H](C)[C@H](NC(=O)[C@H](CCC(N)=O)NC(=O)[C@H](C)NC(=O)[C@H](CCCNC(=N)N)NC(=O)[C@@H](NC(=O)[C@H](CCCCN)NC(=O)[C@H](CCC(=O)O)NC(=O)[C@H](CCCNC(=N)N)NC(=O)CNC(=O)[C@H](CCC(=O)O)NC(=O)[C@H](CC(C)C)NC(C)=O)C(C)C)C(=O)NC[C@H](C)C(=O)NC[C@H](C)C(=O)N[C@@H](CCC(=O)O)C(=O)NCC(=O)N[C@@H](CCSC)C(=O)N[C@@H](CO)C(=O)N[C@@H](CCCCN)C(=O)N[C@@H](Cc1c[nH]c2ccccc12)C(=O)N[C@@H](CO)C(=O)N[C@@H](CCCCN)C(=O)N[C@@H](CCCNC(=N)N)C(=O)N[C@@H](CCCCN)C(=O)N[C@@H](CCCCN)C(N)=O (HELM PEPTIDE1{[ac].L.E.G.R.E.K.V.R.A.Q.I.[C[C@@H](CN[*:1])C(=O)[*:2]].[C[C@@H](CN[*:1])C(=O)[*:2]].E.G.M.S.K.W.S.K.R.K.K.[am]}$$$$V2.0) | 79% | 14 nM | 99% |  |  | 24% |  | 
CC[C@H](C)[C@H](NC(=O)[C@H](CCC(N)=O)NC(=O)[C@H](C)NC(=O)[C@H](CCCNC(=N)N)NC(=O)[C@@H](NC(=O)[C@H](CC(C)C)NC(=O)[C@H](CCC(=O)O)NC(=O)[C@H](CCCNC(=N)N)NC(=O)CNC(=O)[C@H](CO)NC(=O)[C@H](CC(C)C)NC(=O)[C@H](CCCCN)NC(=O)[C@@H](NC(=O)[C@@H](NC(C)=O)C(C)C)[C@@H](C)CC)C(C)C)C(=O)NC[C@H](C)C(=O)N[C@H](C(=O)N[C@@H](CO)C(=O)NCC(=O)N[C@@H](CCSC)C(=O)N[C@@H](CO)C(=O)N[C@H](C(=O)N[C@@H](Cc1c[nH]c2ccccc12)C(=O)N[C@@H](CO)C(=O)N[C@@H](CCCCN)C(=O)N[C@@H](CCCNC(=N)N)C(=O)N[C@@H](CO)C(=O)N[C@@H](CC(C)C)C(N)=O)[C@@H](C)O)[C@@H](C)CC (HELM PEPTIDE1{[ac].V.I.K.L.S.G.R.E.L.V.R.A.Q.I.[C[C@@H](CN[*:1])C(=O)[*:2]].I.S.G.M.S.T.W.S.K.R.S.L.[am]}$$$$V2.0) |  | 708 nM | 78% |  |  |  |  | 
CC[C@H](C)[C@H](NC(=O)[C@H](CCC(N)=O)NC(=O)[C@H](C)NC(=O)[C@H](CCCNC(=N)N)NC(=O)[C@@H](NC(=O)[C@H](CC(C)C)NC(=O)[C@H](CCC(=O)O)NC(=O)[C@H](CCCNC(=N)N)NC(=O)CNC(=O)[C@H](CO)NC(=O)[C@H](CC(C)C)NC(=O)[C@H](CCCCN)NC(=O)[C@@H](NC(=O)[C@@H](NC(C)=O)C(C)C)[C@@H](C)CC)C(C)C)C(=O)NC[C@H](C)C(=O)NC[C@H](C)C(=O)N[C@@H](CO)C(=O)NCC(=O)N[C@@H](CCSC)C(=O)N[C@@H](CO)C(=O)N[C@H](C(=O)N[C@@H](Cc1c[nH]c2ccccc12)C(=O)N[C@@H](CO)C(=O)N[C@@H](CCCCN)C(=O)N[C@@H](CCCNC(=N)N)C(=O)N[C@@H](CCCCN)C(=O)N[C@@H](CCCCN)C(N)=O)[C@@H](C)O (HELM PEPTIDE1{[ac].V.I.K.L.S.G.R.E.L.V.R.A.Q.I.[C[C@@H](CN[*:1])C(=O)[*:2]].[C[C@@H](CN[*:1])C(=O)[*:2]].S.G.M.S.T.W.S.K.R.K.K.[am]}$$$$V2.0) |  | 92.1 nM | 99% |  |  |  |  | 
Ac-EEVIKLSGRELVRAQIAISGMSTWSKRKK-NH2 |  | 897 nM | 92% |  |  |  |  | 
Ac-VIKLSGRELVRAQIAISGMSTWSKRKK-NH2 |  | 522 nM | 89% |  |  |  |  | 
H-VIKLSGRELVRAQIAISGMSTWSKRSL-NH2 | 3% |  |  | 1900 µg/mL | 14 µg/mL | 2% |  | 
